# Reference: patent US9017730B2 (The Regents of the University of California, priority 2010, dated 2015)
# Legend:
# [1] = tested on: microbes; assay: in vitro antimicrobial activity, organism not given; assay type: cell-based; details: neutral pH (~7)
# [2] = pig, in vivo
# [3] = pig, in vivo; remark: listed apart in the source
# [4] = tested on: S. aureus 6538; assay: rodent model of prevention of wound infection (subcutaneous polypropylene mesh); details: solution
# Method: (§2) In this model, a mesh pre-soaked with phosphate buffered saline (PBS) or K180L20 was inserted subcutaneously into the dorsal cervical region of Sprague-Dawley rats, followed by 10^6 S. aureus or P. aeruginosa. Additional PBS or K180L20 was added, wounds closed, and animals returned to cages for 48 hr.
# [5] = tested on: P. aeruginosa (Clinical Pig Isolate); assay: as above; details: solution
# Method: as §2
# [6] = tested on: S. aureus; assay: in vitro antimicrobial activity, incubated with bacteria for 30 min prior to plating for growth; assay type: cell-based
# Method: (§1) K180L20 was incubated with bacteria for 30 min prior to plating for growth;
# [7] = tested on: P. aeruginosa; assay: as above; assay type: cell-based
# Method: as §1
# [8] = tested on: E. coli; assay: as above; assay type: cell-based
# Method: as §1
# [9] = tested on: S. epidermidis; assay: as above; assay type: cell-based; details: FIG. 4
# Method: as §1
# [10] = inflammation by histology in rodent infection model; assay type: in vivo, rats; details: rodent open wounds, copolypeptide in solution, versus control treatments
# [11] = tested on: S. aureus 6538; assay: porcine infection prevention open-wound model; details: solution (10 mg/mL) applied prior to inoculation
# Method: Full-thickness 1 cm diameter wounds were made in the dorsal and lateral thorax of a 25-35 kg Yorkshire-cross pig. K180L20 hydrogel (or control buffer) was applied, and after four hr, wounds were inoculated with S. aureus. Wounds were assessed after 48 hr for bacterial counts by standard microbiology methods.
# [12] = critical aggregation concentration (CAC) via pyrene fluorescence; assay type: physicochemical; details: in water
# Method: Polypeptide solutions (2 mL) were dispersed in water at a range of concentrations (2.0×10^−3 to 2.0×10^−12 M). A stock pyrene solution was made by dissolving pyrene in acetone (6.0×10^−2 M). Next, an appropriate amount of the pyrene stock solution was added to give a final concentration of 12×10^−7 M in water and the acetone was evaporated off. To each polypeptide solution, 2.0 mL of the aqueous stock pyrene solution was added to afford a final concentration of 6.0×10^−7 M. Then, each solution was allowed to equilibrate overnight prior to measurements. To record fluorescence spectra, 3.0 mL of each polypeptide solution was added to a 4.0 mL polystyrene covet. The excitation spectra were recorded within a range of 300-360 nm at an emission wavelength of 390 nm. All spectra were run with an integration time of 1 sec/0.5 nm. The ratio of the intensities of two peaks I338/I333 was plotted as a function of polypeptide concentration (M) for each sample. The CACs were determined as the intersection of the extrapolated linear fits of the plot.
Substance,antimicrobial activity at neutral pH [1],"mononuclear inflammation, edema, or hemorrhage versus controls [2]","neutrophilic inflammation, severity versus controls [2]","serocellular exudates, severity versus controls [2]","inflammation, necrosis, and epithelial coverage versus control-treated wounds [3]","reduction in bacterial population, S. aureus ([4]; 20 μg/ml of copolypeptide)","reduction in bacterial population, S. aureus ([4]; 2 mg/ml)","reduction in bacterial population, P. aeruginosa ([5]; 20 μg/ml of copolypeptide)","reduction in bacterial population, P. aeruginosa ([5]; 2 mg/ml)","reduction of bacteria, S. aureus ([6]; 10 μg/ml)",antimicrobial activity against S. aureus ([6]; FIG. 4),"reduction of bacteria, P. aeruginosa ([7]; 10 μg/ml)",antimicrobial activity against P. aeruginosa ([7]; FIG. 4),"reduction of bacteria, E. coli ([8]; 10 μg/ml)",antimicrobial activity against E. coli ([8]; FIG. 4),antimicrobial activity against S. epidermidis [9],"inflammation, histopathological evidence [10]","prevention of microbial infection, S. aureus [11]",critical aggregation concentration (CAC) [12] [µM]
Poly(L-glutamate-Na)54-b-poly(rac-leucine)20 [E54(rac-L)20],low antimicrobial activity,,,,,,,,,,,,,,,,,,
Poly(L-Lysine.HCl)55-b-poly(rac-Leucine)20 [K55(rac-L)20],,No differences,minimally less severe,mildly,similar,1-3 log,complete (or near complete) reduction,1-3 log,complete (or near complete) reduction,reduction of bacteria,substantial antimicrobial activity,reduction of bacteria,substantial antimicrobial activity,reduction of bacteria,substantial antimicrobial activity,substantial antimicrobial activity,at or below the level of control treatments,fully prevented microbial infection,8.1
